The assay addresses T1, human recombinant phosphodiesterase IVb (met-248) (Homo sapiens, UniProt Q07343).
T1 construct: fused on or other part: GST (glutathione transferase) fused on as a tag
In words: SPA based PDE activity assay. Type of assay: biochemical. Particulars: 100 nM cAMP, purified GST fusion protein of PDE IVb (met-248) from baculovirus/Sf-9. How it is done:
Compounds which inhibit the hydrolysis of cAMP to AMP by the type-IV cAMP-specific phosphodiesterases were screened in a 96-well plate format as follows:
In a 96 well-plate at 30° C. was added the test compound (dissolved in 2 μL DMSO), […] of substrate buffer containing [2,8-^3H] adenosine 3′,5′-cyclic phosphate (cAMP, 110 nM to 50 μM), 10 mM MgCl2, 1 mM EDTA, 50 mM Tris, pH 7.5. The reaction was initiated by the addition of […] of human recombinant PDE4 (the amount was controlled so that ˜10% product was formed in 10 min.). The reaction was stopped after 10 min. by the addition of 1 mg of PDE-SPA beads (Amersham Pharmacia Biotech, Inc., Piscataway, N.J.). The product AMP generated was quantified on a Wallac Microbeta® 96-well plate counter (EG&G Wallac Co., Gaithersburg, Md.). The signal in the absence of enzyme was defined as the background. 100% activity was defined as the signal detected in the presence of enzyme and DMSO with the background subtracted. Percentage of inhibition was calculated accordingly. IC50 value was approximated with a non-linear regression fit using the standard 4-parameter/multiple binding sites equation from a ten point titration.
The IC50 values of the Examples disclosed here under were determined with 100 nM cAMP using the purified GST fusion protein of the human recombinant phosphodiesterase IVb (met-248) produced from a baculovirus/Sf-9 expression system.

T1 sequence (Q07343 236-736): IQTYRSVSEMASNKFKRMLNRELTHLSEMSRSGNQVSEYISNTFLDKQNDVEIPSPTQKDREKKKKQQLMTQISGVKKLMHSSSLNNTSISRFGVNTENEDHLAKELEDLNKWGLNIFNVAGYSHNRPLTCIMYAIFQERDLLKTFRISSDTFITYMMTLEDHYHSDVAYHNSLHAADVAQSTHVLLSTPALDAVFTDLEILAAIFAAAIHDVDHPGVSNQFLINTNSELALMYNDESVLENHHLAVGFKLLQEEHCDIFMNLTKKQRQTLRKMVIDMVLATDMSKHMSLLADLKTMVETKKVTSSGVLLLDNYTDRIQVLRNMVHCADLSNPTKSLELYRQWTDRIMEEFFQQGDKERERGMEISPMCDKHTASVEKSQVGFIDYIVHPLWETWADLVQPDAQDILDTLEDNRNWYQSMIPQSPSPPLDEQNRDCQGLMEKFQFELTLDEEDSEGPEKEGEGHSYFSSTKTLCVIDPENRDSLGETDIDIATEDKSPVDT

For `O=C(NCC(F)(F)F)c1cn(-c2cccc(-c3ccc([C@@H]4C[C@H]4C(=O)O)cc3)c2)c2ncccc2c1=O` (single isomer, unassigned; (+)) [24-(+)-isomer, (+)-(trans)-2-{3′-[4-oxo-3-{[(2,2,2-trifluoroethyl)amino]carbonyl}-1,8-naphthyridin-1(4H)-yl]biphenyl-4-yl}cyclopropanecarboxylic acid], the IC50 was determined as 0.4 nM.

In the case of `O=C(NCC1CC1)c1cn(-c2cccc(-c3ccc(C4CC4C(=O)O)cc3)c2)c2ncccc2c1=O` (centres unmarked) [Example 26, 2-{3′-[3-{[(Cyclopropylmethyl)amino]carbonyl}4-oxo-1,8-naphthyridin-1(4H)-yl]-1,1′-biphenyl-4-yl}cyclopropanecarboxylic acid], the IC50 turned out to be 0.2 nM. The value for `O=C(NC1CC1)c1cn(-c2cccc(-c3cccc(C4CC4C(=O)O)c3)c2)c2ncccc2c1=O` (centres unmarked) [Example 2] was 0.2 nM; that for `O=C(NC1CC1)c1cn(-c2cccc(-c3ccc([C@H]4C[C@H]4C(=O)O)cc3)c2)c2ncccc2c1=O` (single isomer, unassigned; isomer 2) [8-(−)-isomer, 2-(cis)-{3′-[3-[(Cyclopropylamino)carbonyl]-4-oxo-1,8-naphthyridin-1(4H)-yl]-1,1′-biphenyl-4-yl}cyclopropanecarboxylic acid] was 0.7 nM. Turning to `O=C(NC1CC1)c1cn(-c2cccc(-c3ccc(C4CC4C(=O)O)c(Cl)c3)c2)c2ncccc2c1=O` (centres unmarked) [Example 17, 2-{3-Chloro-3′-[3-[(cyclopropylamino)carbonyl]-4-oxo-1,8-naphthyridin-1(4H)-yl]-1,1′-biphenyl-4-yl}cyclopropanecarboxylic acid], the IC50 was determined as 0.1 nM. Turning to `CC(C)(CC(=O)O)c1ccc(-c2cccc(-n3cc(C(=O)NC4CC4)c(=O)c4cccnc43)c2)cc1` [Example 5, 3-{3′-[3-[(Cyclopropylamino)carbonyl]4-oxo-1,8-naphthyridin-1(4H)-yl]-1,1′-biphenyl-4-yl}-3-methylbutanoic acid], the IC50 turned out to be 0.6 nM. As to `O=C(NC1CC1)c1cn(-c2cccc(-c3ccc(C4CC4C(=O)O)c(F)c3)c2)c2ncccc2c1=O` (single isomer, unassigned; isomer 2) [12-(−)-isomer, 2-{3′-[3-[(Cyclopropylamino)carbonyl]-4-oxo-1,8-naphthyridin-1(4H)-yl]-3-fluoro-1,1′-biphenyl-4-yl}cyclopropanecarboxylic acid], the half-inhibitory concentration (IC50) amounted to 0.4 nM. The result for `O=C(NCC(F)(F)F)c1cn(-c2cccc(-c3ccc(C4CC4C(=O)O)c(F)c3)c2)c2ncccc2c1=O` (single isomer, unassigned; (+)) [Example 29, (+)-(trans)-2-{3-fluoro-3′-[4-oxo-3-{[(2,2,2-trifluoroethyl)amino]carbonyl}-1,8-naphthyridin-1(4H)-yl]biphenyl-4-yl}cyclopropanecarboxylic acid] reads 0.3 nM.

Broadly, the IC50 is the point on the concentration scale where inhibition reaches its midpoint.

The values are drawn from patent US7342024B2, “4-Oxo-1-3-substituted phenyl-1,4-dihydro-1,8-naphthyridine-3-carboxamide phosphodiesterase-4 inhibitors” (Merck Frost Canada Ltd., priority 2002, dated 2008).
